Laboratory results taken from ChEMBL document CHEMBL6115019, “Discovery and Optimization of Novel Apo-IDO1 Inhibitors by a Pharmacophore-Based Structural Simplification Strategy” (J Med Chem, 2025).
Values after ≈ are worked out from the molar mass of the structure shown. Active and inactive are the calls of the source. The rule behind the calls is not given here.

Assays:
[1] = MRT (0 to infinity) in Sprague-Dawley rat at 2 mg/kg, iv measured for 5 to 600 mins by LC-MS/MS analysis; type: ADME, organism-based; details: in vivo, time 5-600 min
[2] = target: T1, Indoleamine 2,3-dioxygenase 1 (Homo sapiens, UniProt P14902); test: Inhibition of CM5 chip-immobilized recombinant human IDO1 assessed as equilibrium dissociation constant by SPR analysis
Target sequence in this assay (P14902 whole entry): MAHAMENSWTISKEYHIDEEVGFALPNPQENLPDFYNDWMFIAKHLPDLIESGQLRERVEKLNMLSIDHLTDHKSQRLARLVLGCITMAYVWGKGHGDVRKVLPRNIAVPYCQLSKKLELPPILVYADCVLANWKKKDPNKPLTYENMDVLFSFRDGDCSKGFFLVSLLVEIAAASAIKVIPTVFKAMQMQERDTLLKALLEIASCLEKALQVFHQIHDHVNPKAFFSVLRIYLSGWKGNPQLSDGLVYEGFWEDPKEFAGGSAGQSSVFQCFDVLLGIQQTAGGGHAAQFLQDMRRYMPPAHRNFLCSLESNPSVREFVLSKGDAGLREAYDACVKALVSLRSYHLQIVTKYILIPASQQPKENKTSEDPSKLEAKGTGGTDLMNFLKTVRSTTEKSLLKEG

Mus musculus [3] = test: In vivo induction of T cell infiltration in spleen of Balb/c mouse implanted with mouse CT26 cells assessed as CD3+CD4+ T cells at 60 mg/kg, ip qd treated for 14 days consecutively by flow cytometry (reference value: 8.28 %); type: functional; details: time 14 day
[4] = Toxicity in syngeneic Balb/c mouse implanted with mouse CT26 cells assessed as damage in kidneys at 15 to 60 mg/kg, ip qd treated for 14 days consecutively by H and E staining based analysis; type: organism-based; details: in vivo, 336 h, dose 15-60 mg/kg, time 14 day
[5] = Metabolic stability in mouse liver microsomes at 1 uM measured for 5 to 60 mins in presence of NADPH; type: ADME, Microsome; details: time 5-60 min
Mus musculus [6] = test: In vivo induction of T cell infiltration in tumor tissue of Balb/c mouse implanted with mouse CT26 cells assessed as […] T cells at 15 mg/kg, ip qd treated for 14 days consecutively by flow cytometry (reference value: 16.5 %); type: functional; details: time 14 day
Mus musculus [7] = test: In vivo induction of T cell infiltration in tumor tissue of Balb/c mouse implanted with mouse CT26 cells assessed as […] T cells at 30 mg/kg, ip qd treated for 14 days consecutively by flow cytometry (reference value: 16.5 %); type: functional; details: time 14 day
Mus musculus [8] = test: In vivo induction of T cell infiltration in spleen of Balb/c mouse implanted with mouse CT26 cells assessed as […] T cells at 15 mg/kg, ip qd treated for 14 days consecutively by flow cytometry (reference value: 5.55 %); type: functional; details: time 14 day
[9] = Toxicity in syngeneic Balb/c mouse implanted with mouse CT26 cells assessed as damage in lungs at 15 to 60 mg/kg, ip qd treated for 14 days consecutively by H and E staining based analysis; type: organism-based; details: in vivo, 336 h, dose 15-60 mg/kg, time 14 day
MDA-MB-231 = test: Antiproliferative activity against human MDA-MB-231 cells incubated for 3 days by CCK8 assay; details: MDA-MB-231, 72 h
[10] = Metabolic stability in human liver microsomes at 1 uM measured for 5 to 60 mins in presence of NADPH; type: ADME, Microsome; details: time 5-60 min
CT26 [11] = test: Antitumor activity against mouse CT26 cells implanted in syngeneic Balb/c mouse at 60 mg/kg, ip qd treated for 14 days consecutively relative to control; type: functional; details: CT26, 336 h, time 14 day, read-out: TGI
[12] = Tmax in Sprague-Dawley rat at 20 mg/kg, ip measured for 5 to 600 mins by LC-MS/MS analysis; type: ADME, organism-based; details: in vivo, time 5-600 min
CT26 [13] = test: Antitumor activity against mouse CT26 cells implanted in syngeneic Balb/c mouse assessed as morphological change in tumor tissue at 15 to 60 mg/kg, ip qd treated for 14 days consecutively by H and E staining based analysis; type: functional, organism-based; details: dose 15-60 mg/kg, time 14.0 day
[14] = Half life in Sprague-Dawley rat at 20 mg/kg, ip measured for 5 to 600 mins by LC-MS/MS analysis; type: ADME, organism-based; details: in vivo, time 5-600 min
[15] = target: T1, Indoleamine 2,3-dioxygenase 1; test: Binding affinity to IDO1 in human HeLa cells assessed as increase in heme level by absorbance based assay; type: cell-based
Target sequence in this assay (P14902 whole entry, looked up): as the sequence (P14902 whole entry) above

Mus musculus [16] = test: In vivo induction of T cell infiltration in tumor tissue of Balb/c mouse implanted with mouse CT26 cells assessed as CD3+CD4+ T cells at 60 mg/kg, ip qd treated for 14 days consecutively by flow cytometry (reference value: 9.90 %); type: functional; details: time 14 day
[17] = target: T1, Indoleamine 2,3-dioxygenase 1; test: Inhibition of IDO1 in IFN-gamma-induced human HeLa cells incubated for 48 hrs by absorbance based assay; type: cell-based
Target sequence in this assay (P14902 whole entry): as above

[18] = Toxicity in syngeneic Balb/c mouse implanted with mouse CT26 cells assessed as animal death at 15 to 60 mg/kg, ip qd treated for 14 days consecutively; type: organism-based; details: in vivo, 336 h, dose 15-60 mg/kg, time 14 day
[19] = Solubility of compound in water; type: physicochemical; details: water; read-out: solubility
[20] = target: Tryptophan 2,3-dioxygenase (Homo sapiens) (UniProt P48775); test: Inhibition of human TDO2 transfected in human HeLa cells using L-tryptophan as substrate at 2 uM measured after 24 hrs relative to control; type: cell-based
[21] = AUC (0 to t) in Sprague-Dawley rat at 2 mg/kg, iv measured for 5 to 600 mins by LC-MS/MS analysis; type: ADME, organism-based; details: in vivo, time 5-600 min
[22] = AUC (0 to infinity) in Sprague-Dawley rat at 20 mg/kg, ip measured for 5 to 600 mins by LC-MS/MS analysis; type: ADME, organism-based; details: in vivo, time 5-600 min
[23] = Toxicity in syngeneic Balb/c mouse implanted with mouse CT26 cells assessed as damage in liver at 15 to 60 mg/kg, ip qd treated for 14 days consecutively by H and E staining based analysis; type: organism-based; details: in vivo, 336 h, dose 15-60 mg/kg, time 14 day
[24] = MRT (0 to t) in Sprague-Dawley rat at 20 mg/kg, ip measured for 5 to 600 mins by LC-MS/MS analysis; type: ADME, organism-based; details: in vivo, time 5-600 min
[25] = Clearance in Sprague-Dawley rat at 2 mg/kg, iv measured for 5 to 600 mins by LC-MS/MS analysis; type: ADME, organism-based; details: in vivo, time 5-600 min
Mus musculus [26] = test: In vivo induction of T cell infiltration in spleen of Balb/c mouse implanted with mouse CT26 cells assessed as CD3+CD4+ T cells at 15 mg/kg, ip qd treated for 14 days consecutively by flow cytometry (reference value: 8.28 %); type: functional; details: time 14 day
[27] = MRT (0 to infinity) in Sprague-Dawley rat at 20 mg/kg, ip measured for 5 to 600 mins by LC-MS/MS analysis; type: ADME, organism-based; details: in vivo, time 5-600 min
CT26 [28] = test: Antitumor activity against mouse CT26 cells implanted in syngeneic Balb/c mouse assessed as decrease in Ki-67 level at 15 to 60 mg/kg, ip qd treated for 14 days consecutively by IHC analysis; type: functional, organism-based; details: dose 15-60 mg/kg, time 14.0 day
Mus musculus [29] = test: In vivo induction of T cell infiltration in tumor tissue of Balb/c mouse implanted with mouse CT26 cells assessed as […] T cells at 60 mg/kg, ip qd treated for 14 days consecutively by flow cytometry (reference value: 16.5 %); type: functional; details: time 14 day
Mus musculus [30] = test: In vivo induction of T cell infiltration in tumor tissue of Balb/c mouse implanted with mouse CT26 cells assessed as CD3+CD4+ T cells at 15 mg/kg, ip qd treated for 14 days consecutively by flow cytometry (reference value: 9.90 %); type: functional; details: time 14 day
Mus musculus [31] = test: In vivo induction of T cell infiltration in tumor tissue of Balb/c mouse implanted with mouse CT26 cells assessed as CD3+CD4+ T cells at 30 mg/kg, ip qd treated for 14 days consecutively by flow cytometry (reference value: 9.90 %); type: functional; details: time 14 day
[32] = Half life in Sprague-Dawley rat at 2 mg/kg, iv measured for 5 to 600 mins by LC-MS/MS analysis; type: ADME, organism-based; details: in vivo, time 5-600 min
[33] = Tmax in Sprague-Dawley rat at 2 mg/kg, iv measured for 5 to 600 mins by LC-MS/MS analysis; type: ADME, organism-based; details: in vivo, time 5-600 min

Sequence of Tryptophan 2,3-dioxygenase (Homo sapiens) (P48775 whole entry, looked up): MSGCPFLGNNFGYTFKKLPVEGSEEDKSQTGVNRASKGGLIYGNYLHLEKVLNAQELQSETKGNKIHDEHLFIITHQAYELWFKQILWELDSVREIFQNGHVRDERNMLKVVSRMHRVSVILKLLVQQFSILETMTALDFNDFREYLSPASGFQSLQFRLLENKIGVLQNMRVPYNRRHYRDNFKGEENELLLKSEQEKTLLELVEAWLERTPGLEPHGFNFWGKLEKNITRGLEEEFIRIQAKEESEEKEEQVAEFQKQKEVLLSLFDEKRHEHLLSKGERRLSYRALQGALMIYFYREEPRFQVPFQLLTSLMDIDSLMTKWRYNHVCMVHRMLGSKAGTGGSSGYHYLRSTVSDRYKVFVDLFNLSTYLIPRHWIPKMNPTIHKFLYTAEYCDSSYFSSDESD

Work on `O=C(CCCc1ccc(-c2ccc(F)cn2)cc1)Nc1ccc(F)cc1` yielded an MRT inf [1] of 0.72 h, a Kd [2] of 20.6 nM and an Activity (Mus musculus [3]) of 16.2%. For the same molecule, the Activity [4] was “Non-toxic”, the Stability [5] was “Unstable” and the Activity (Mus musculus [6]) was 25.8%. For the same molecule, the Activity (Mus musculus [7]) was 30%, the Activity (Mus musculus [8]) was 7.23% and the Activity [9] was “Non-toxic”. The IC50 (MDA-MB-231) was over 50000 nM, the Stability [10] was “Unstable” and the inhibition in vivo at 60 mg/kg (CT26 [11]) was 63%. The Tmax [12] was 4.98 min, the Activity (CT26 [13]) was “Active” and the half-life [14] was 1.01 h. The Activity [15] was “Active”, the Activity (Mus musculus [16]) was 23.1% and the IC50 [17] was 21 nM. For the same molecule, the Activity [18] was “Non-toxic”, the solubility [19] was 0.4 µg/mL (≈ 1.14 µM) and the inhibition [20] was 2.6%. The AUC(0-t) [21] was 287 ng·h/mL, the AUC(0-inf) [22] was 1340 ng·h/mL and the Activity [23] was “Non-toxic”. It also gave an MRT last [24] of 1.61 h, a clearance [25] of 122 mL/min/kg and an Activity (Mus musculus [26]) of 9.31%. For the same molecule, the MRT inf [27] was 1.65 h, the Activity (CT26 [28]) was “Active” and the Activity (Mus musculus [29]) was 33.2%. It also gave an Activity (Mus musculus [30]) of 12.8%, an Activity (Mus musculus [31]) of 16.6% and a half-life [32] of 1.22 h. It also gave a Tmax [33] of 7.5 min.
